According to patent US20190077840A1, “SELECTIVE MCL-1 BINDING PEPTIDES” (MASSACHUSETTS INSTITUTE OF TECHNOLOGY, priority 2015, published 2019):
Numbered stars: 1 amine (or outer) side, 2 acyl side, 3 side chain; on linkers, the order of the positions; unused ones are H or OH. Bridge positions count the residues as written; N and C are the ends. Square brackets hold non-standard residues; d marks the D form. Peptide text beside a SMILES is read from it. ξ: configuration not given here. ξαMeNle(6-ylidene) = CC(CCCC=[*:3])(N[*:1])C(=O)[*:2]; Cha = N[C@@H](CC1CCCCC1)C(=O)O; Nle = CCCC[C@H](N)C(=O)O; Aib = CC(C)(N)C(=O)O

How the values were obtained:
Mcl-1/Myc 2640 = format: cell-based, murine
From the text: (§1) A whole-cell BH3 profiling experiment quantifies the dependence of cancer cell mitochondrial integrity on specific anti-apoptotic proteins and can be predictive of cellular responses to chemotherapy (Ryan, J. A.; Brunelle, J. K.; Letai, A. Proc. Natl. Acad. Sci. 2010, 107 (29), 12895 and Ryan, J. A; Letai, A. Methods 2013, 61(2), 156). In this assay, permeabilized cells are stained with dye JC1 to monitor mitochondrial membrane integrity in response to increasing doses of BH3 peptides. We used this assay to test the specificity of our Mcl-1-binding stapled peptides in cell lines with different established dependencies on Bcl-xL and Mcl-1. Mcl-1/Myc 2640 is an engineered murine leukemia cell line overexpressing murine Mcl-1 and Myc, and MDA-MB 231 is a human breast cancer cell line with a primed Bcl-xL-dependent pro-file (Brunelle, J. K.; Ryan, J.; Yecies, D.; Opferman, J. T.; Letai, A. J Cell Biol. 2009, 187 (3), 429 and Ryan, J. A.; Brunelle, J. K.; Letai, A. Proc. Natl. Acad. Sci. 2010, 107 (29), 12895). By BH3 profiling using native BH3 peptides from BAD and NOXAA, we confirmed cell line dependencies on these anti-apoptotic proteins (FIG. 3). […] Mcl-1 2640 cell line is dependent on Mcl-1 whereas MDA-MB-231 is dependent on Bcl-xL, as indicated by response to NoxA and Bad, respectively. […]

MDA-MB 231 = format: cell-based, human
From the text: as §1

chymotrypsin = assay: Protease resistance: HPLC half-lives of peptides exposed to chymotrypsin
Mcl-1 = Mcl-1 (Homo sapiens, UniProt Q07820); assay: Competition fluorescence polarization/anisotropy assay with fluoresceinated Bim BH3 peptide for binding to Mcl-1
From the text: (§2) The standard errors reported are over three experiments.
Position 2e is usually conserved as small (alanine, glycine, serine) in natural BH3 sequences.

[1] = Circular dichroism spectroscopy (helicity); format: physicochemical; settings: more helical than MS1
Method: as §2
The secondary structure of selected stapled peptides was assessed by circular dichroism (CD) spectroscopy (FIG. 1(c)). […] Therefore, the increases in helicity can be attributed to both helix-inducing substitutions: Aib at 2e and Cha at 3a (Armstrong, K. M.; Fairman, R.; Baldwin, R. L. J. Mol Biol. 1993, 230 (1), 284. and Venkatraman, J.; Shankaramma, S. C.; Balaram, P. Chem. Rev. 2001, 101 (10), 3131).

Bax/Bak deficient cells = assay: Whole-cell BH3 profiling in Bax/Bak deficient cells (BBDL); format: cell-based; settings: Bax/Bak independent activity indicates non-specific toxicity

Sequence of Mcl-1 (Q07820 whole entry): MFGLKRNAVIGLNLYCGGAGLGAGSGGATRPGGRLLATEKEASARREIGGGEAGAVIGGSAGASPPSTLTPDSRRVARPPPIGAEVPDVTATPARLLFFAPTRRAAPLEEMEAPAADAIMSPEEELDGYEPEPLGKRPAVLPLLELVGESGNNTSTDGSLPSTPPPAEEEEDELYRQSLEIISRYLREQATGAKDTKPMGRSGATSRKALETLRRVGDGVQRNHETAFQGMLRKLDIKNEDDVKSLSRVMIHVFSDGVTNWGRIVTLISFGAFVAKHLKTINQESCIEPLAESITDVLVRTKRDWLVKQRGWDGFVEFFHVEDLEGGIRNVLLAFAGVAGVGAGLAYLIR

| Compound | EC50 (Mcl-1/Myc 2640) | EC50 (MDA-MB 231) | half-lives (protease resistance) compared to M1d (chymotrypsin) | Mcl-1-binding affinity in comparison to MS1 (Mcl-1) | helicity in solution relative to MS1 [1] | activity in Bax/Bak deficient cells (Bax/Bak deficient cells) |
| --- | --- | --- | --- | --- | --- | --- |
| CCCC[C@H](NC(=O)[C@H](Cc1c[nH]c2ccccc12)NC(=O)[C@@H](N)[C@@H](C)CC)C(=O)NC(C)(C)C(=O)N[C@@H](CCC(N)=O)C(=O)NCC(=O)N[C@@H](CC1CCCCC1)C(=O)N[C@@H](CCCNC(=N)N)C(=O)N[C@@H](CCCNC(=N)N)C(=O)N[C@@H](CC(C)C)C(=O)NCC(=O)N[C@@H](CC(=O)O)C(=O)N[C@@H](CCC(=O)O)C(=O)N[C@H](C(=O)NC1(C)CCCC=CCCCC(C)(C(=O)N[C@@H](CCCNC(=N)N)C(=O)N[C@@H](CCCNC(=N)N)C(N)=O)NC(=O)[C@H](Cc2ccc(O)cc2)NC(=O)[C@H](Cc2ccc(O)cc2)NC(=O)[C@H](C)NC1=O)[C@@H](C)CC (stereo partly shown) [M3d, IWBAibQGChaRRLGDEIXAYYXRR] (H-IW[Nle][Aib]QG[Cha]RRLGDEI[ξαMeNle(6-ylidene)]AYY[ξαMeNle(6-ylidene)]RR-NH2; staple 15-19) | 30 nM | > 5000 nM | longer half-lives |  |  |  |
| IWBTQGLRRLGDEIXAYYXRR [M1d] |  |  |  | improved | ~3 fold | Bax/Bak independent activity |
| CCCC[C@H](NC(=O)[C@H](Cc1c[nH]c2ccccc12)NC(=O)[C@@H](N)[C@@H](C)CC)C(=O)NC(C)(C)C(=O)N[C@@H](CCC(N)=O)C(=O)NCC(=O)N[C@@H](CC(C)C)C(=O)N[C@@H](CCCNC(=N)N)C(=O)N[C@@H](CCCNC(=N)N)C(=O)N[C@@H](CC(C)C)C(=O)NCC(=O)N[C@@H](CC(=O)O)C(=O)N[C@@H](CCC(=O)O)C(=O)N[C@H](C(=O)NC1(C)CCCC=CCCCC(C)(C(=O)N[C@@H](CCCNC(=N)N)C(=O)N[C@@H](CCCNC(=N)N)C(N)=O)NC(=O)[C@H](Cc2ccc(O)cc2)NC(=O)[C@H](Cc2ccc(O)cc2)NC(=O)[C@H](C)NC1=O)[C@@H](C)CC (stereo partly shown) [M2d, IWBAibQGLRRLGDEIXAYYXRR] (H-IW[Nle][Aib]QGLRRLGDEI[ξαMeNle(6-ylidene)]AYY[ξαMeNle(6-ylidene)]RR-NH2; staple 15-19) |  |  | longer half-lives |  |  |  |
